According to patent US9345671B2, “Adiponectin production enhancer” (Daiichi Sankyo Company, Limited, priority 2003, dated 2016):

Tests used:
secreted adiponectin = assay: Measurement of amount of secreted adiponectin in 3T3-L1 adipocyte culture supernatant by Western blotting; type: cell-based; settings: 3T3-L1 adipocytes culture supernatant, test compound 10 μM, 48 hours then 24 hours after replacing the medium; densitometer
Method: (§1) Preadipocyte cell line 3T3-L1 was purchased from the American Type Culture Collection (ATCC). […] Subsequently, the medium was replaced with fresh growth medium every 3 days, and the 3T3-L1 adipocytes were prepared on day 10 after the start of differentiation. Test compounds that were poorly soluble in water were used after dissolving in DMSO. Test compounds that were easily soluble in water were dissolved in sterile water followed by addition of the same amount of DMSO as that used for the aforementioned poorly water-soluble test compounds. In addition, in the case of test compounds that are poorly soluble in water, the test compound may be dissolved in ethanol and used following the addition of 0.1 N aqueous sodium hydroxide solution after shaking as necessary. After allowing the 3T3-L1 cells to adequately differentiate into adipocytes, a test compound was added to the medium to a final concentration of 10 μM followed by culturing the cells for 48 hours. The cells were additionally cultured for 24 hours after replacing the medium. […] Secretion of adiponectin into culture supernatant was detected by Western blotting. […] After washing the PVDF membrane, the adiponectin bands were detected using ECL Detection Reagents (Amersham-Pharmacia). The bands were quantified with a densitometer (Molecular Devices). The amounts of secreted adiponectin were analyzed by Western blotting.

adiponectin mRNA = assay: Measurement of adiponectin mRNA by quantitative RT-PCR in 3T3-L1 adipocytes; type: cell-based; settings: test compound 10 μM, 48 hours then 24 hours after replacing the medium, 36B4 internal control
Method: as §1, with “The synthesized cDNA was amplified using FastStrand DNA Master SYBR Green I (Roche Diagnostics), and the amplified PCR product” for “Secretion of adiponectin into culture supernatant”, “with LightCycler (Roche Diagnostics).” for “by Western blotting.”, “The” for “After washing the PVDF membrane, the”, “mRNA amount was measured according to quantitative RT-PCR.” for “bands were detected using ECL Detection Reagents (Amersham-Pharmacia). The bands were quantified with a densitometer (Molecular Devices). The amounts of secreted adiponectin were analyzed by Western blotting.”

C57BL/6J mice [1] = assay: Administration of pravastatin to mice in feed: blood glucose levels and adiponectin concentrations; type: in vivo; settings: 0.06% (wt/wt) in feed for 15 weeks
Method: The body weights of the animals were measured and blood samples were collected on the day the test started, and the animals were divided into two groups of 5 animals per cage based on their body weights and blood glucose levels. […] Blood samples were collected from the tail vein in an amount equal to one heparinized capillary tube.
The amount of feed and general behaviour were checked at least once a day.
Blood glucose levels were measured on the days when blood samples were collected.

[2] = tested on: C57BL/6J mouse adipocytes; assay: Glucose uptake test using isolated adipocytes from pravastatin-dosed mice; type: in vivo
Method: (i) Epididymal adipose tissue was excised from a group administered with pravastatin for 16 weeks and a non-dosed group of C57BL/6J mice (n=5). The excised adipose tissue was handled under conditions of 37° C. at all times. The adipose tissue was cut into small pieces with a scissors, followed by the addition of medium (DMEM, 1 mM sodium pyruvate, 25 mM HEPES pH 7.4, 0.1% BSA, 100 u/ml penicillin, 0.1 mg/ml streptomycin) containing 1 mg/ml of collagenase I (Worshington), and shaking at 37° C. and 80 rpm. Following the reaction, 2.5 volumes of the aforementioned medium were added, the adipocytes were screened out by passing the cell suspension through a 260 μm mesh sieve, and again passed through a 100 μm mesh sieve to prepare an adipocyte suspension. […] Subsequently, 0.6 μCi of ^3H-labeled 2-deoxyglucose was added and allowed to react for 30 minutes. Following the reaction, the cell suspension was immediately transferred to a centrifuge tube containing silicone oil and centrifuged. After cutting out the oil layer of the upper layer containing adipocytes with a knife, it was transferred to a glass vial containing 4 ml of Hionic Fluor (Perkin-Elmer) liquid scintillation counter cocktail followed by measurement of specific radioactivity. The amount of measured radioactivity of the ^3H-2-deoxyglucose was used as an indicator of the amount of glucose taken up by the cells. (4) Results

C57BL/6J mice [3] = assay: Insulin tolerance test using pravastatin-dosed mice; type: in vivo; settings: C57BL/6J mice dosed in feed for 15 weeks, fasted 2 hours, insulin 0.5 u/kg intraperitoneally; significantly lower than non-dose group (148 mg/dl)
Method: A group administered with pravastatin by mixing in feed for 15 weeks and a non-dosed group of C57BL/6J mice (n=5) were fasted for 2 hours. After measuring the body weight of each animal, insulin (Humalin, Lilly) was administered intraperitoneally at 0.5 u/kg, and blood samples were collected from the tail vein immediately before the start of administration and at 15, 30, 60 and 90 minutes after the start of administration followed by measurement of blood glucose levels.

| Compound | amount of secreted adiponectin relative to the control group (secreted adiponectin) [times] | amount of adiponectin mRNA relative to the control group (adiponectin mRNA) [times] | blood glucose levels, dose group versus non-dose group (C57BL/6J mice [1]) | adiponectin concentrations in dose group relative to non-dose group (C57BL/6J mice [1]; blood) [times] | insulin sensitivity versus non-dose group ([2]; adipocytes isolated from C57BL/6J mice dosed for 16 weeks) | amount of glucose uptake relative to non-dose group ([2]; epididymal adipocytes isolated from C57BL/6J mice dosed for 16 weeks, insulin-induced 3H-2-deoxyglucose uptake) [times] | blood glucose level at 60 minutes after administration of insulin (C57BL/6J mice [3]) [mg/dL] |
| --- | --- | --- | --- | --- | --- | --- | --- |
| CC(C)c1nc(N(C)S(C)(=O)=O)nc(-c2ccc(F)cc2)c1/C=C/[C@@H](O)C[C@@H](O)CC(=O)O [rosuvastatin, (+)-(3R,5S)-7-[4-(4-fluorophenyl)-6-isopropyl-2-(N-methyl-N-methanesulfonylamino)pyrimidin-5-yl]-3,5-dihydroxy-6(E)-heptenoic acid] | 1.6 | 1.3 | – | – | – | – | – |
| CC[C@H](C)C(=O)O[C@H]1C[C@H](O)C=C2C=C[C@H](C)[C@H](CC[C@@H](O)C[C@@H](O)CC(=O)O)[C@H]21 [pravastatin, (+)-(3R,5R)-3,5-dihydroxy-7-[(1S,2S,6S,8S,8aR)-6-hydroxy-2-methyl-8-[(S)-2-methylbutyryloxy]-1,2,6,7,8,8a-hexahydro-1-naphthyl]heptanoic acid] | 1.7 | 1.6 | no significant differences | 1.28 | increased insulin sensitivity | 1.4 | 110 |
